Results on one compound are retold here after US8119691B2, “Method for treating airway hyper-responsiveness with lipoxin analogs” (National Institutes of Health (NIH), priority 2001, dated 2012).

For one experiment, the system named is mouse ear skin. Description: Eosinophil tissue infiltration: EPO activity in mouse ear skin after topical LTB4 plus PGE2. Conditions: topical LXa 10 μg per ear, LTB4 1 μg + PGE2 1 μg, 13-16 h. Type of experiment: in vivo. The procedure: FIG. 6. Expression of human ALX in transgenic mice prevents eosinophil trafficking. LTB4 (1 μg) and PGE2 (1 μg) were topically applied (13-16 h) to mouse ear skin and EPO activity in tissue biopsies was determined by bromination of HPA (see Methods). Values represent the mean±SEM for pmoles Br-HPA per μg total protein for Non-tg littermates (n=6) or BLT-tg (n=2) mice in the absence or presence of topical LXa (10 μg per ear) and 2 separate ALX-tg lines (n=4). *P<0.05 by Student's T-test compared to littermate controls.
Eosinophil tissue infiltration. […] EPO activity was monitored by mono-bromination of HPA (Br-HPA). […] Trimethyl silylated HPA, Br-HPA and d4-tyrosine were detected by GC-MS (GC model #6890, MS model #5973, Hewlett Packard, San Fernando, Calif.). […] EPO activity was quantitated by percent conversion of HPA to Br-HPA, taking into account the recovery of the internal standard (>80%) and normalized for the samples' protein content (determined by BioRad protein reagent) (BioRad, Hercules, Calif.).

For experiment [1], the target named is T1, recombinant cysLT1 receptors (Homo sapiens, UniProt Q9Y271).
T1 construct: host or cells: Chinese hamster ovary cells (recombinant expression)
T1 sequence (Q9Y271 1-337): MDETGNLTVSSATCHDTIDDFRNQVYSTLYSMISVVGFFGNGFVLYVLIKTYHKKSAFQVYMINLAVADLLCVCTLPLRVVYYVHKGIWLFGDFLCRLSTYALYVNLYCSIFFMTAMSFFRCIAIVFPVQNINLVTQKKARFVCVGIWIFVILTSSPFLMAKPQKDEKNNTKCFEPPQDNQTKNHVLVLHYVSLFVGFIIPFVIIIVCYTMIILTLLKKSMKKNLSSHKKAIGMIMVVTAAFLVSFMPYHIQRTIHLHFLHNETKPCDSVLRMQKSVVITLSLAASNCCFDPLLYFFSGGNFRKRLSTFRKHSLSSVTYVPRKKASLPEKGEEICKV
The note with it: CHO cells, in vitro (ref. 12); cited from earlier work.

Regarding `COC(=O)CCC[C@H](O)[C@H](O)/C=C/C=C/C=C\C=C\[C@H](O)COc1ccc(F)cc1` [LXa, 15-epi,16-para-fluoro-phenoxy-LXA4-methyl ester], the “eicosanoid-stimulated skin EPO activity” value with mouse ear skin (Non-tg mice) and with mouse ear skin (mice with increased expression of LTB4 receptors (BLT-tg)) was “inhibited eicosanoid-stimulated skin EPO activity” each time. For the same compound, the “competition for binding at LTD4 recognition sites and recombinant cysLT1 receptors” value in experiment [1] is “compete for binding with high affinity at LTD4 recognition sites”.
